Laboratory results published in US9546201B2, “MUC-1 cytoplasmic domain peptides as inhibitors of cancer” (DANA-FARBER CANCER INSTITUTE, INC., priority 2008, dated 2017).
Where no end group is shown, it is not given here. [ ]: non-standard residue; d: D form.

Assays:
[1] = test system: H-1975 non-small cell lung carcinoma cell line; settings: 5 μM, 3 days
Method: H-1975 non-small cell lung carcinoma cell line was grown in DMEM with 10% heat-inactivated fetal bovine serum with 100 units/mL penicillin, 100 μg/ml streptomycin and 2 mmol/L L-glutamine. Cells were re-seeded one day before treatments. Cells were treated with 5 μM GO-200-2B for 3 days and cell viability was determined by trypan blue exclusion. Y-axis represents percent viability as compared to control untreated cells.
H1975 non-small cell lung carcinoma cells were treated with 5 μM of different MUC1-CD CQC-region peptides for 6 days. Viable cell number on day 6 was determined by trypan blue exclusion. […] Y-axis represents relative growth as compared to control untreated cells.
Moreover, another non-small cell lung carcinoma cell line, H-1975, was treated with 5 μM GO-200-2B for 3 days and monitored for cell growth as well as cell death.
Multiple tumor cell lines (ZR-75-1 Hormone-dependent Breast Carcinoma; MDA-MB-231 Triple-Negative Breast Carcinoma; A549 Non-small Cell Lung Carcinoma; H-1975 Non-small Cell Lung Carcinoma) were grown in RPMI-1640 supplemented with 10% heat-inactivated fetal bovine serum, 100 units/mL penicillin and 100 μg/mL streptomycin and 2 mmol/L L-glutamine. […] The proliferation of different cell lines was compared with cells treated with vehicle only.

[2] = test system: ZR-75-1 breast carcinoma cells; experiment: ZR-75-1 proliferation with GO-203 analogs (trypan blue exclusion); format: cell-based, human; settings: 5 μM every day for 4 days
Method: FIG. 10. Effect of different MUC1-CD CQC-region peptides on the growth of hormone-dependent breast carcinoma cells. To determine whether exposure to different MUC1-CD CQC-region containing peptides affect growth, ZR-75-1 breast carcinoma cells were treated with 5 μM of different peptides for 4 days and monitored for cell proliferation. […] Y-axis represents percent growth inhibition as compared to control untreated cells.
FIG. 14. Effect of Shorter GO-203 peptides on proliferation of ZR-75-1 Breast Cancer Cells. Human ZR-75-1 breast cancer cells were grown in RPMI1640 supplemented with 10% heat-inactivated fetal bovine serum, 100 units/ml penicillin, 100 μg/ml streptomycin. Cells were treated with different peptides at 5 μM every day for four days and cell viability was determined by trypan blue exclusion.
Multiple tumor cell lines (ZR-75-1 Hormone-dependent Breast Carcinoma; MDA-MB-231 Triple-Negative Breast Carcinoma; A549 Non-small Cell Lung Carcinoma; H-1975 Non-small Cell Lung Carcinoma) were grown in RPMI-1640 supplemented with 10% heat-inactivated fetal bovine serum, 100 units/mL penicillin and 100 μg/mL streptomycin and 2 mmol/L L-glutamine. Cells were treated separately with 5 μM of different analogs of GO-203 (FIG. 8) for 3 to 7 days and viability was determined by trypan blue exclusion. The proliferation of different cell lines was compared with cells treated with vehicle only.

[3] = test system: ZR-75-1 cells; experiment: In vitro cytotoxicity and combination assays (MTS, CombiTool combination index); format: cell-based, human
Method: FIGS. 15A-D. Effects of GO-203 in combination with different anti-cancer drugs. ZR-75-1 cells were exposed to the indicated concentrations of Cisplatin (FIG. 15A), Doxorubicin (FIG. 15B), rh-TNF-α (FIG. 15C) and Taxol (FIG. 15D) alone and in combination with GO-203. The treatment was sequential for Cisplatin, Doxorubicin and Taxol where cells were exposed to these agents for 72 h followed by treatment with 5 μM of GO-203 for 72 h. In studies with rh-TNF, cells were exposed concomitantly to different concentrations of rh-TNF alone and in combination with 5 μM of GO-203 for 72 h. The MTS assay was used to determine the cell survival. For all panels, the Y-axis represents percent growth as compared to control untreated cells.
FIG. 16. GO-203 is additive or synergistic with anti-cancer agents. The plots show combination indexes against different effect levels (fraction affected). The effect level was obtained by treating cells with the indicated combinations of anti-cancer drugs and GO-203. Y-axis represents—fold growth as compared to control untreated cells.
Cells were seeded in a 96-well flat-bottomed microtiter plate (Fisher) at 1000 cells per well for a 6-day experiment or at 3000 cells per well for a 3-day experiment. The cells were then cultured for 24 h. Anti-cancer drugs and GO-203 were diluted to the indicated concentrations and added to the cells. GO-203 (5 μmol/L) was added every 24 h for 72 h. Cell viability was determined by adding MTS reagent to the cells and reading the absorbance at 490 nm by a microplate reader.
The IC50 values for all the anti-cancer drugs were determined by non-linear regression analysis using Graphpad Prism (GraphPad Software, San Diego Calif.). The CombiTool computer program (version 2.001, IMB Jena Biocomputing Group) was used to calculate the combination index within a dose range in the presence of 5 μmol/L GO-203.
The combination index (CI) values generated by the CombiTool program were plotted against the fraction affected by the drug combination. The CI values were close to 1 for Cisplatin and GO-203, indicating an additive interaction. The CI values obtained for Doxorubicin (25, 50, 100, 200 nM), Taxol (25, 50, 100 nM) and TNF (10, 20, 40 ng/ml) with GO-203 were less than 1, supporting a strong additive effect or synergism (FIGS. 15A-D and 16).

[4] = target: T1, His-MUC1-CD (Homo sapiens, UniProt P15941); settings: BIAcore analysis, Leng et al., 2007; read-out: dissociation constant (Kd) of MUC1-CD dimers; cited from earlier work
T1 sequence (P15941 1184-1255): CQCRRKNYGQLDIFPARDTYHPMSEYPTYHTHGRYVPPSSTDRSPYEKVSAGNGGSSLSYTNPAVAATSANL

[5] = test system: DU145 prostate carcinoma cells; experiment: DU145 cell growth by MTT assay; format: cell-based; settings: 5 μM, 4 days (FIG. 7)
Method: FIG. 7. MUC1 7-mer inhibits prostate carcinoma. DU145 prostate carcinoma cells were treated with 5 μM CQC short (7-mer; SEQ ID NO: 53) or 5 μM CQC long (15-mer; SEQ ID NO: 63) peptides for 4 days. Cell growth was measured by MTT assay. The Y-axis represents percent growth inhibition compared to untreated cells (control).

[6] = test system: multiple carcinoma cell lines; experiment: Inventors' recent studies of MUC1 C-terminal peptides on carcinoma cell lines; format: cell-based; settings: L-amino acid peptide
From the text: However, these MUC1-C-terminal peptides consists of L-amino acids. […] Consequently, they have generated an all-dextro form of the above described shorter MUC1 C-terminal peptide, in which the L-amino acids were changed to D-amino acids (GO-203). Moreover, to determine the minimum amino acid residues from the MUC1-C-terminal region that are required to retain the cell killing activity, they have also generated many different versions of GO-203 as described in FIG. 8.

CC(=O)N[C@@H](C)C(=O)N[C@@H](CCCCN)C(=O)N[C@@H](CCCCN)C(=O)N[C@@H](Cc1ccc(O)cc1)C(=O)N[C@@H](CC(C)C)C(=O)N[C@@]1(C)CCCC=CCCCC2(CCCC=CCCC[C@@](C)(C(=O)N[C@@H](CCCNC(=N)N)C(=O)N[C@@H](CCCCN)C(=O)N[C@@H](CC(N)=O)C(=O)N[C@@H](Cc3ccc(O)cc3)C(N)=O)NC(=O)[C@H](CS)NC(=O)[C@H](CCC(N)=O)NC(=O)[C@H](CS)NC2=O)NC(=O)[C@H](C)NC(=O)[C@H](CC(C)C)NC(=O)[C@H](C)NC1=O (stereo partly drawn) [GO-200-2B]
cell death [1]: significant induction of cell death

GO-203: all-dextro form of the shorter MUC1 C-terminal peptide CQCRRKN (SEQ ID NO:53) ([dC][dQ][dC][dR][dR][dK][dN]; cysteine pairing not given here)
growth of ZR-75-1 cells [2]: significant inhibition of growth
combination index (CI) with Cisplatin ([3]; Cisplatin 72 h followed by 5 μM GO-203 for 72 h): ~1
combination index (CI) with Doxorubicin ([3]; Doxorubicin 25, 50, 100, 200 nM, followed by 5 μM GO-203): less than 1
combination index (CI) with Taxol ([3]; Taxol 25, 50, 100 nM, followed by 5 μM GO-203): less than 1
combination index (CI) with TNF ([3]; rh-TNF 10, 20, 40 ng/ml concomitantly with 5 μM GO-203 for 72 h): less than 1

GO-207: shorter GO-203 peptide, SEQ ID NO:4 (CQCRRK)
growth of ZR-75-1 cells [2]: significant inhibition of growth

GO-208: shorter GO-203 peptide, SEQ ID NO:50 (CQCRR)
growth of ZR-75-1 cells [2]: significant inhibition of growth

GO-209: shorter GO-203 peptide, SEQ ID NO:54 (CQCR)
growth of ZR-75-1 cells [2]: significant inhibition of growth

MUC1-CD: 72-amino acid MUC1 cytoplasmic domain (SEQ ID NO:1); forms dimers
Kd [4]: 33 nM

MUC1/CQC 7-mer: shorter MUC1-C-terminal peptide CQCRRKN of L-amino acids (7-mer; SEQ ID NO: 53)
in vitro activity relative to the 15-mer [5]: as potent as the MUC1/CQC 15-mer
killing of tumor cells [6]: active in killing tumor cells
